Laboratory results: patent publication US20060034807A1, “Innervated artificial tissues and uses thereof” (Ottawa Health Research Institute, priority 2002, published 2006)

Legend:
[1] = tested on: HUVEC; test: Effect of growth factors and retinyl acetate on angiogenesis in the sclera model; assay type: cell-based, Human
Method: The fibrinogen solution (3 mg/ml) was mixed with the thrombin solution (1.75 mg/ml) at a ratio of 1:0.03 v/v in wells of different sizes. Within a minute, enzymatic polymerization of fibrinogen gave fibrin gels under gentle agitation at 37° C. To incorporate endothelial cells in the fibrin matrix and to induce angiogenesis, endothelial cells were firstly seeded on the bottom of gelatin-coated wells at high density to provide a confluent monolayer at 48 hours. […] Fibrin gels were obtained again within a minute. Within 2 weeks of culture at 37° C. with 5% CO2, tube like vessels were generated within the matrix that associated together in order to form cord structures. These were visible by light microscopy and were counted in order to give an indication of vessel numbers. A combinatorial approach was utilized to evaluate what factors are required to achieve the optimal number of blood vessels within this sclera model. The pseudo sclera was generated as per Section 3.1.3. […] The effectiveness of the growth factors in positively affecting angiogenesis was evaluated by counting the number of tubes identified in a dish by brightfield microscopy. […] The effect of RA on angiogenesis was evaluated in the system described above. […] Blood vessel formation was evaluated by counting the number of vessels within a treated dish. […]

[2] = tested on: innervated TE cornea constructs; test: Substance P release from innervated TE corneas (EIA); assay type: cell-based, chick; details: for SP release versus controls: 1% capsaicin or 50 μM veratridine, P<0.05
Method: To elicit a functional response such as SP release, innervated TE cornea constructs were treated with capsaicin or veratridine. Briefly, innervated tissue engineered corneas were treated with a total of 1.5 ml of SHEM containing 8.5% Tween 80 and 1.5% ethanol either alone (control) or with 1) 1% (w/v) capsaicin, or 2) 50 μM veratridine. At 0, 1, 3, 6, 12 and 24 hours post-treatment, culture supernatants were collected, flash frozen in liquid nitrogen and stored at −80° C. Substance P content of the medium was measured using a substance P specific competitive peptide enzyme immunoassay (EIA) kit (Peninsula Laboratories). […] All groups, n 3. *P<0.001 versus control (2-way ANOVA).

[3] = tested on: nerve bundles growing into the cornea; test: Electrophysiological recording of evoked action potentials in TE corneas; assay type: cell-based, chick; details: 50 mM lidocaine HCl; stimulation of ganglion cell cluster
Excerpt: Direct electrophysiological recording from the corneal epithelium was therefore conducted to confirm that nerve bundles growing into the cornea were able to conduct lidocaine-sensitive action potentials that were evoked by stimulation of the ganglion cell cluster (FIG. 3C, D). Tissue engineered corneas were transferred into an interface recording chamber, perfused with artificial saline containing (in mM): NaCl: 126, KCl: 3.0, MgSO4: 2.0, NaHCO3: 26, NaH2PO4 1.25, CaCl2: 2.0, dextrose: 10, oxygenated with 95% O2/5% CO2 at room temperature. Cathodal stimulation of ganglion cell clusters was done using silver wires pressed lightly against the surface and applying square wave stimulus pulses of 50 μs duration and typically 60-80 V in amplitude. Differential recordings of electrical responses from nerve fibre bundles were recorded with glass micropipettes (≈50 μm tips) filled with 150 mM NaCl. Because of the close proximity of the stimulation to the recording electrodes, a very large stimulus artefact was generated that obscured the very small action potentials (FIG. 3C, the action potential is indicted by the arrow).
To observe action potentials in isolation, evoked responses were recorded before and after addition of 50 mM lidocaine HCl. […]

[4] = tested on: neutrophils; test: Zymographic detection of metalloproteases; assay type: cell-based; details: neutrophils added on top of collagen matrix
Method: Metalloproteinases MMPs) are a family of closely related zinc-containing enzymes whose principal function is thought to be an integral part of generalized tissue remodeling as well as the formation of new blood vessels. Zymography has the advantage that in addition to detecting enzyme activity it can be used to provide information about the molecular weight of an enzyme and so help identify the enzyme. To achieve this dissolved gelatin is incorporated into a polyacrylamide gel, samples are added to the gel, separated by electrophoresis and the gel allowed to incubate for a while to allow the enzymes to degrade the gelatin. When the gels are stained for proteins clear lysis bands are apparent where the metalloproteinases have degraded the gelatin.

CC(=O)OC/C=C(C)/C=C/C=C(C)/C=C/C1=C(C)CCCC1(C)C [RA, Retinyl acetate]
number of blood vessels ([1]; high levels of RA): decreased | Blood vessel formation (number of vessels) ([1]; various concentrations of RA): increases in a dose dependent fashion and is optimal at an intermediate range

COc1cc(CNC(=O)CCCC/C=C/C(C)C)ccc1O [capsaicin]
release of SP versus controls ([2]; 1% (w/v) capsaicin, 1, 3, 6, 12 and 24 hours, P<0.001): significantly greater | SP release versus controls ([2]; 6 hours post-treatment): significant increase | SP release versus controls ([2]; 24 hours post-treatment): significant increase

CCN(CC)CC(=O)Nc1c(C)cccc1C [lidocaine]
sensitivity of evoked action potentials [3]: lidocaine-sensitive

formyl-Met-Leu-Phe [FMLP]
stimulation of neutrophils (MMP-2 and MMP-9 detected) [4]: able to stimulate them
